Type in all cases: in vivo, female C57BL/6 mice
Test [1] has as its system mouse model of scopolamine-induced dry eye. Nature of the test: Histopathology of the right eye (cornea) at necropsy Day 22 in scopolamine-induced dry eye mice. On the procedure:
The study consisted of a total of 5 groups of female C57BL/6 mice, comprising 4 groups of 12 mice each and an additional group of 4 mice. Bilateral short-term dry eye was induced by a combination of scopolamine hydrobromide (Sigma-Aldrich Corp., St. Louis, Mo.) injection (subcutaneous (SC), four times daily, 0.5 mg/dose, Days 0-21) and by exposing mice to the drying environment of constant air draft. Starting on Day 1, mice of Groups 1-4 were treated three times daily (TID) for 21 days with bilateral topical ocular (oculus uterque; OU) administration (5 μL/eye/dose) of vehicle (0.9% sterile saline; negative control article); or the peptide of SEQ ID NO: 11 (0.06%, 0.25% and 0.6%). […] During the in-life (treatment) period, clinical observations were recorded once daily; slit-lamp examination (SLE) with corneal fluorescein staining, tear break-up time test (TBUT), and phenol red thread test (PRTT) were performed three times per week. […] Tissues from the right eyes (oculus dexter, OD) were fixed and then evaluated microscopically. […] Stained slides were evaluated via light microscopy. […] These tissues were scored for injury based upon a 0-4 scale, with 0 being normal, 1 being minimal, 2 being mild, 3 being moderate, and 4 being severe. […] Conjunctivae were scored for erosion and inflammation as well as presence or absence of goblet cells.

The test system is the same in test [2]. The test is described as follows: Phenol red thread tear test (PRTT) in scopolamine-induced dry eye mice. The note with it: for Mean PRTT AUC: TID, OU, 5 μL/eye, AUC Day 7-21. On the procedure:
The study consisted of a total of 5 groups of female C57BL/6 mice, comprising 4 groups of 12 mice each and an additional group of 4 mice. Bilateral short-term dry eye was induced by a combination of scopolamine hydrobromide (Sigma-Aldrich Corp., St. Louis, Mo.) injection (subcutaneous (SC), four times daily, 0.5 mg/dose, Days 0-21) and by exposing mice to the drying environment of constant air draft. Starting on Day 1, mice of Groups 1-4 were treated three times daily (TID) for 21 days with bilateral topical ocular (oculus uterque; OU) administration (5 μL/eye/dose) of vehicle (0.9% sterile saline; negative control article); or the peptide of SEQ ID NO: 11 (0.06%, 0.25% and 0.6%). Mice of Group 5 were maintained as un-induced, (no dry eye) untreated controls. During the in-life (treatment) period, clinical observations were recorded once daily; slit-lamp examination (SLE) with corneal fluorescein staining, tear break-up time test (TBUT), and phenol red thread test (PRTT) were performed three times per week. Necropsies were performed on Day 22; eyes, eye lids, conjunctivae, and lacrimal glands were collected from both eyes of each animal. Tissues from the right eyes (oculus dexter, OD) were fixed and then evaluated microscopically. Tissues from the left eyes (oculus sinister; OS) were flash-frozen in liquid nitrogen and stored frozen at −80° C. for possible subsequent analyses. Tear production was measured three times a week in both eyes using PRTT test strips (Zone-Quick; Menicon, Nagoya, Japan). Prior to the first treatment of the day, a thread was applied to the lateral canthus of the conjunctival fornix of each eye for 30 seconds under slit-lamp biomicroscopy. Tear migration up the tread (i.e., the length of the wetted cotton thread) was measured using a millimeter scale.

For test [3] the test system is unchanged. Nature of the test: Tear break-up time (TBUT) test in scopolamine-induced dry eye mice. The note with it: for Mean Calculated TBUT AUC: TID, OU, 5 μL/eye, Days 1 to 21. On the procedure:
The study consisted of a total of 5 groups of female C57BL/6 mice, comprising 4 groups of 12 mice each and an additional group of 4 mice. Bilateral short-term dry eye was induced by a combination of scopolamine hydrobromide (Sigma-Aldrich Corp., St. Louis, Mo.) injection (subcutaneous (SC), four times daily, 0.5 mg/dose, Days 0-21) and by exposing mice to the drying environment of constant air draft. Starting on Day 1, mice of Groups 1-4 were treated three times daily (TID) for 21 days with bilateral topical ocular (oculus uterque; OU) administration (5 μL/eye/dose) of vehicle (0.9% sterile saline; negative control article); or the peptide of SEQ ID NO: 11 (0.06%, 0.25% and 0.6%). Mice of Group 5 were maintained as un-induced, (no dry eye) untreated controls. During the in-life (treatment) period, clinical observations were recorded once daily; slit-lamp examination (SLE) with corneal fluorescein staining, tear break-up time test (TBUT), and phenol red thread test (PRTT) were performed three times per week. Necropsies were performed on Day 22; eyes, eye lids, conjunctivae, and lacrimal glands were collected from both eyes of each animal. Tissues from the right eyes (oculus dexter, OD) were fixed and then evaluated microscopically. Tissues from the left eyes (oculus sinister; OS) were flash-frozen in liquid nitrogen and stored frozen at −80° C. for possible subsequent analyses. The TBUT test was conducted three times weekly by measuring the time elapsed in seconds between a complete blink after application of fluorescein to the cornea and the appearance of the first random dry spot in the tear film. […] At least ninety seconds later, corneal epithelial damage was graded using a slit-lamp with a cobalt blue filter after another drop of 0.1% fluorescein was reapplied to the cornea; the cornea then was scored per the Draize ocular scale.

Non-standard residues stand in square brackets, D forms with d.

Turning to “NH2-DQSRPVQPFLNLTTPRKPRPPRRRQRRKKRG-COOH (H-[dD][dQ][dS][dR][dP][dV][dQ][dP][dF][dL][dN][dL][dT][dT][dP][dR][dK][dP][dR][dP][dP][dR][dR][dR][dQ][dR][dR][dK][dK][dR]G-OH) [SEQ ID NO: 11]”, the “Corneal changes (histopathology) in comparison to the other treatment groups” value in test [1] (Group 2, low dose (0.06%)) was “slightly more severe”. Also, in test [1] (high dose (0.6%)), the “Reducing/ameliorating the corneal changes (histopathology)” value is given as “most effective”. Also, in test [2] (0.06%, 0.25% and 0.6% (Groups 2, 3 and 4)), the “Dose dependence of PRTT” value is given as “generally dose-dependent increases in PRTT”. The “Mean PRTT AUC” value in test [2] (Group 2: 0.06% (low dose)) turned out to be 39.96; in test [2] (Group 3: 0.25% (mid dose)) it was 42.79; in test [2] (Group 4: 0.6% (high dose)) it was 43.17. For the same substance, the “Mean Calculated TBUT AUC” value in test [3] (Group 2: 0.06% (low dose)) was 88.54; in test [3] (Group 3: 0.25% (mid dose)), 91.19; in test [3] (Group 4: 0.6% (high dose)) it was 89.98. The “TBUT means compared with vehicle group” value in test [3] (low, medium and high dose (Groups 2, 3 and 4)) is listed as “above the vehicle group”. Besides, in test [3] (low, mid and high dose levels (Groups 2-4)), the “Dose dependence of TBUT” value is reported as “generally dose-dependent increases in TBUT”.
